Entries after “also recorded” stand apart in the source; their conditions may differ. Where no end group is shown, it is not given here.
Assays:
Assay type in all cases: in vivo, C57b1/6 mice
[1] = tested on: crypt cells and villi of small intestine; test: H&E staining: crypt cell counts and villous heights after gamma ray irradiation
Experimental: (§1) 8-week-old C57b1/6 mice (Central Lab Animal Inc., Seoul, Korea) were irradiated with gamma rays to establish an animal model of gastrointestinal damage, and gastrointestinal protective and regenerative effects of Substance-P were then examined.
(§2) For this purpose, C57b1/6 mice were divided into two groups, an experimental group and a control group, each consisting of 5 animals (n=5). 100 nM of Substance-P (Cat. No. 05-23-0600, Calbiochem) was injected to the experimental group mice via tail vein, 24 hours prior to gamma ray irradiation. 24 hours later, animals were irradiated with a gamma irradiator at a dose of 7.6 Gy. Immediately after gamma ray irradiation, 100 nM of Substance-P was intravenously injected once more into animals of the experimental group. The control group was given PBS.
(§3) 4.5 hours, 3 days, and 7 days later, mice of each group were euthanized by CO2 asphyxiation and then received abdominal incision. Small intestines were isolated and fixed in a 3.7% formaldehyde solution for tissue fixation, for 1 to 2 days. Following the tissue processing process, the tissues were hardened in a paraffin block. The formalin-fixed paraffin tissues were sectioned to a 5 μm thickness using a microtome and then attached to a coated slide glass which was then dried, followed by TUNEL staining, Brd-U immunostaining and H&E staining. For Brd-U immunostaining, 2 hours prior to sacrifice of mice, 50 mg/kg of 5-bromo-2-deoxyuridine (Brd-U, Cat. No. B-9285, Sigma) was introduced into dividing cells by peritoneal injection.
After the tissue section slide was H&E-stained and photographed, crypt cell counts and villous heights were measured and averaged, respectively.

crypt cells [2] = test: Brd-U immunohistochemical staining for proliferation of crypt cells after gamma ray irradiation
Experimental: as §1, §2
as §3, with “Small” for “4.5 hours, 3 days, and 7 days later, mice of each group were euthanized by CO2 asphyxiation and then received abdominal incision. Small”
Proliferative effects of Substance-P on crypt cells were examined by Brd-U immunohistochemical staining.
The tissue section slide was deparaffinized with xylene and hydrated in alcohol. The tissue section was pretreated with 2N HCl for 30 min, and endogenous peroxidase activity was blocked with addition of H2O2 for 10 min. The tissue section was treated with 0.3% Triton X-100 for 5 min to increase cell permeability. Then, 2% serum in a Vector ABC kit (PK-6100, Vector Laboratories Inc.) was added to block the cells. BrdU antibodies (Cat. No. 1 170 376, Roche Molecular Biochemicals) and 2% serum were diluted in a ratio of 6:100, followed by reaction at room temperature for 1 hour. […]

crypt cells [3] = test: TUNEL assay for apoptosis of crypt cells after gamma ray irradiation
Experimental: as §1, §2
4.5 hours, 3 days, and 7 days later, mice of each group were euthanized by CO2 asphyxiation and then received abdominal incision. […]
Dead cells were detected by fluorescence labeling of damaged DNA molecules through TUNEL assay using an In Situ Cell Death Detection Kit (Cat. No. 1 684 795, Roche Molecular Biochemicals).
The tissue section slide was deparaffinized with xylene and hydrated in alcohol. […] Nuclear staining was carried out using 4′,6-diamidino-2-phenylindole (DAPI, Cat. No. D-9542, Sigma) and the stained tissue was examined in a green field of 515 to 565 nm under a fluorescence microscope.

[4] = radiation-induced gastrointestinal damage in mice, vs non-treated control group

Substance-P (RPKPQQFFGLM-NH2; ends and bridges not checked; UniProt P20366 58-68, looked up) [11-amino acid neuropeptide; Cat. No. 05-23-0600, Calbiochem]
villous atrophy (villous height) ([1]; Day 3 after irradiation, vs group without Substance-P): less villous atrophy | number of viable crypt cells (crypt cell survival) ([1]; Days 1, 3 and 7 after irradiation (FIG. 3), vs group without Substance-P): higher number of viable crypt cells | recovery of damaged crypt cells and villi / recovery time from gastrointestinal damage, summary statement [1, 4]: faster recovery of damaged crypt cells and villi to a normal state; also recorded: recovery time from gastrointestinal damage is also shortened | BrdU staining of dividing crypt cells (crypt cells [2]; Day 1 after gamma ray irradiation, with vs without Substance-P): no significant difference in staining of cells | BrdU staining of dividing crypt cells (crypt cells [2]; Day 3 after gamma ray irradiation): intense staining in large numbers of cells | gastrointestinal recovery through crypt hyperplasia, conclusion from BrdU staining (crypt cells [2]; after gamma ray irradiation (FIG. 2)): earlier gastrointestinal recovery | apoptosis of crypt stem cells (TUNEL) (crypt cells [3]; 4.5 hours after 7.6 Gy gamma rays, Substance-P 100 nM i.v. 24 h before and immediately after irradiation, vs control group (PBS)): significant reduction in apoptosis of crypt stem cells | apoptotic rate of crypt cells, summary statement (crypt cells [3]; [4]): significantly lower apoptotic rate of crypt cells; also recorded: apoptosis of stem cells is decreased

— US7846901B2, “Method for inhibiting or treating intestinal damage caused by radiotherapy or chemotherapy comprising administering substance-P” (University-Industry Cooperation Group of Kyunghee University, priority 2007, dated 2010)
